Test results taken from patent US10464928B2, “Amino pyrimidine SSAO inhibitors” (Eli Lilly and Company, priority 2016, dated 2019).
Blank lines part the entries; values can stand above or below the molecule they belong to.

How the values were obtained:
[1] = system: SSAO activity in rat plasma and liver tissues; assay: SSAO Target Engagement (residual SSAO activity in rat plasma and liver after dosing); format: in vivo; conditions: doses 0.005-15 mg/kg
Protocol: The SSAO activity in rat plasma and liver tissues are measured using the MAO-Glo™ assay kit from Promega (V1402). The residual SSAO activity in rats after compound treatment is estimated by measuring the total amine oxidase activity in plasma or liver lysates that are insensitive to the presence of the MAO inhibitor Clogyline and Pargyline. Rats are administered the compound of Example 2 at the doses of 15, 3, 0.6, 0.12, 0.025, 0.005 mg/kg. The control group is administered with the same volume (2 ml/kg) of the dosing vehicle (hydroxyethyl cellulose 1% w/v, 0.25% Tween 80). Plasma and liver at 2 or 24 hours post compound treatment are harvested and stored at −78° C. until analysis. Tissue lysates are prepared by homogenization in a lysis buffer (20 mM HEPES, pH 7.4, 150 mM NaCl, 1 mM EDTA, 1 mM EGTA, 1% Triton X-100 and 1× Roche Complete protease inhibitor tablet). Tissue particles are removed by centrifugation at 12,000 rpm at 4° C. for 30 minutes. 40 μl of plasma or liver lysates is incubated with Clogyline (10 μM) and Pargyline (10 μM) for 20 minutes at room temperature before the addition of the luminogenic substrate (50 μM) for 60 minutes. The product generated is quantified according to the manufacture's procedure. […] The compound of Example 2 was evaluated in the protocol essentially as described above administered at various doses.

[2] = system: NASH and fibrosis induced by 3H diet; assay: Mouse Model of NASH and Fibrosis Induced by 3H Diet; format: in vivo, Male C57BL/6N mice; conditions: for Perisinusoidal fibrosis Left, Score (0-3) / Hepatic inflammation Left, Score (0-3) / Macrovesicular vaculation Left, Score (0-3): left lobe; for Perisinusoidal fibrosis Left, Score (0-3): vehicle 2.5 ± 0.2; for Hepatic inflammation Left, Score (0-3) / Macrovesicular vaculation Left, Score (0-3) / Macrovesicular vaculation Right, Score (0-3): vehicle 2.8 ± 0.1; for Perisinusoidal fibrosis Right, Score (0-3) / Hepatic inflammation Right, Score (0-3) / Macrovesicular vaculation Right, Score (0-3): right lobe; for Perisinusoidal fibrosis Right, Score (0-3): vehicle 2.3 ± 0.1; for Hepatic inflammation Right, Score (0-3): vehicle 2.7 ± 0.1
Protocol: Male C57BL/6N mice are fed with D09100301 diet (Research Diets, 40% fat, 2% cholesterol, 24% fructose, (the, high fat, high cholesterol and high fructose, the “3H diet”) for 150 days. Each mouse is then singly housed after 5 days for an acclimation period. Plasma alanine aminotransferase (ALT) and cytokeratin 18 (CK18) are measured. After one week of recovery, the mice are randomized into 5 groups based on their ALT values, CK18 values, and body weight. […] Blood is collected from mice treated with the compound of Example 6 for 76 days 2 hours after the last dose. Compound levels in the plasma are analyzed by mass spectroscopy. […] At the completion of the study, the animals are sacrificed and their livers excised. Two sections of the left and right lobes are fixed in neutral buffered 10% formalin. Liver tissue slides are stained with hematoxylin and eosin (H&E), Sirius red, and Masson's Trichrome to prepare slides for pathological analysis. All specimens are examined microscopically and scored as a modified Brunt score NASH Activity Score. Scores are based on the grading scheme and end-points as described in Brunt E. M, et al., “Histopathology of nonalcoholic fatty liver disease,” World J. of Gastroenterol, 2010, 16(42), 5286-5296. Group means are then calculated for each individual end-point. The following endpoints are used to characterize the fast food model of NASH in mice as modified from NASH endpoints (See Brunt, E. M. “Histopathology of nonalcoholic fatty liver disease,” Clin Liver Dis., 2009, 13, 533-544 and Brunt, E. M, et al., “Nonalcoholic steatohepatitis: A proposal for grading and staging the histological lesions”, Am J Gastroenterology, 1999, 94(9), 2467-2474.

[3] = Plasma compound level in 3H diet mice by mass spectroscopy; format: in vivo, Male C57BL/6N mice; conditions: treated mice, all doses
Protocol: Male C57BL/6N mice are fed with D09100301 diet (Research Diets, 40% fat, 2% cholesterol, 24% fructose, (the, high fat, high cholesterol and high fructose, the “3H diet”) for 150 days. Each mouse is then singly housed after 5 days for an acclimation period. Plasma alanine aminotransferase (ALT) and cytokeratin 18 (CK18) are measured. After one week of recovery, the mice are randomized into 5 groups based on their ALT values, CK18 values, and body weight. Animals of each group are administrated either vehicle (0.5% methylcellulose (MC)+0.25% Tween 80 in distilled water) or the compound of Example 6 (at a 0.06, 2, 6, and 20 mg/kg dose) once daily in a volume of 5 ml/kg for 11 weeks. Blood is collected from mice treated with the compound of Example 6 for 76 days 2 hours after the last dose. Compound levels in the plasma are analyzed by mass spectroscopy.

SMILES: Cl.Cl.NC/C(=C\F)COc1cnc(N2CCC(O)CC2)nc1 [Example 2, 1-[5-[(E)-2-(Aminomethyl)-3-fluoro-allyloxy]pyrimidin-2-yl]piperidin-4-ol dihydrochloride]
SSAO activity in rat plasma and liver (result in words) [1]: dose-dependently inhibits SSAO activity

plasma compound levels (result in words) [3]: dose-dependent increase
SMILES: Cl.Cl.NC/C(=C\F)COc1cnc(N2CC[C@H](O)C2)nc1 [Example 6, (3S)-1-[5-[(E)-2-(Aminomethyl)-3-fluoro-allyloxy]pyrimidin-2-yl]pyrrolidin-3-ol; Dihydrochloride]
Perisinusoidal fibrosis Left, Score (0-3) ([2]; 0.6 mg/kg once daily 11 weeks): 2.4 ± 0.2
Hepatic inflammation Left, Score (0-3) ([2]; 0.6 mg/kg once daily 11 weeks): 2.6 ± 0.1
Macrovesicular vaculation Left, Score (0-3) ([2]; 0.6 mg/kg once daily 11 weeks): 2.5 ± 0.1
Perisinusoidal fibrosis Right, Score (0-3) ([2]; 0.6 mg/kg once daily 11 weeks): 1.9 ± 0.2
Hepatic inflammation Right, Score (0-3) ([2]; 0.6 mg/kg once daily 11 weeks): 2.5 ± 0.1
Macrovesicular vaculation Right, Score (0-3) ([2]; 0.6 mg/kg once daily 11 weeks): 2.6 ± 0.1
Perisinusoidal fibrosis Left, Score (0-3) ([2]; 2 mg/kg once daily 11 weeks): 2.5 ± 0.2
Hepatic inflammation Left, Score (0-3) ([2]; 2 mg/kg once daily 11 weeks): 2.5 ± 0.1
Macrovesicular vaculation Left, Score (0-3) ([2]; 2 mg/kg once daily 11 weeks): 2.5 ± 0.1
Perisinusoidal fibrosis Right, Score (0-3) ([2]; 2 mg/kg once daily 11 weeks): 1.8 ± 0.2
Hepatic inflammation Right, Score (0-3) ([2]; 2 mg/kg once daily 11 weeks): 2.6 ± 0.1
Macrovesicular vaculation Right, Score (0-3) ([2]; 2 mg/kg once daily 11 weeks): 2.7 ± 0.1
Perisinusoidal fibrosis Left, Score (0-3) ([2]; 6 mg/kg once daily 11 weeks): 2.6 ± 0.2
Hepatic inflammation Left, Score (0-3) ([2]; 6 mg/kg once daily 11 weeks): 2.5 ± 0.2
Macrovesicular vaculation Left, Score (0-3) ([2]; 6 mg/kg once daily 11 weeks): 2.9 ± 0.1
Perisinusoidal fibrosis Right, Score (0-3) ([2]; 6 mg/kg once daily 11 weeks): 2.1 ± 0.3
Hepatic inflammation Right, Score (0-3) ([2]; 6 mg/kg once daily 11 weeks): 2.6 ± 0.2
Macrovesicular vaculation Right, Score (0-3) ([2]; 6 mg/kg once daily 11 weeks): 2.7 ± 0.1
hepatic inflammation (result in words) ([2]; 20 mg/kg): significant decrease
macrovesicular vaculation (result in words) ([2]; 20 mg/kg): significant decrease
perisinusoidal fibrosis (result in words) ([2]; 20 mg/kg): significant decrease
Perisinusoidal fibrosis Left, Score (0-3) ([2]; 20 mg/kg once daily 11 weeks): 1.9 ± 0.2
Hepatic inflammation Left, Score (0-3) ([2]; 20 mg/kg once daily 11 weeks): 2.1 ± 0.1
Macrovesicular vaculation Left, Score (0-3) ([2]; 20 mg/kg once daily 11 weeks): 2.4 ± 0.2
Perisinusoidal fibrosis Right, Score (0-3) ([2]; 20 mg/kg once daily 11 weeks): 1.5 ± 0.2
Hepatic inflammation Right, Score (0-3) ([2]; 20 mg/kg once daily 11 weeks): 2.1 ± 0.1
Macrovesicular vaculation Right, Score (0-3) ([2]; 20 mg/kg once daily 11 weeks): 2.3 ± 0.1
triglyceride levels in blood (result in words) ([2]; 6 and 20 mg/kg): decreased
ALT (result in words) ([2]; all groups of treated mice vs vehicle): significant decrease
